Earlier results, collected in publication PMC5686165, “Plant-to-plant communication triggered by systemin primes anti-herbivore resistance in tomato” (Scientific Reports, 2017).

Test system: A. ervi
Conditions: tomato and A. ervi
Method: The possible biological relevance of the systemin-triggered priming was evaluated using three different types of source plants. […] The qualitative and quantitative differences in VOCs emissions were confirmed by PLSDA analysis and explain the effect on parasitoid attraction. Compared to R-S4, all receiver plants, after 24 hours of exposition to the t ...

C=C(C)CC(C)CCC (stereo not shown) [2,4-dimethyl-1-heptene]
elicitation of indirect defense in inter-specific plant-to-plant communication: powerful elicitor of indirect defense
